# According to patent US20090176817A1, “Method of Treatment of Diarrhea-Predominant Irritable Bowel Syndrome in a Subject” (priority 2005, published 2009):
# Assays:
# human P-glycoprotein = biological target: T1, human P-glycoprotein (Homo sapiens, UniProt P08183); assay: Study K.241.6026: in vitro transport by P-glycoprotein in PK 1 LLC MDR cells; format: in vitro ADME
# T1 construct: expressed in transfected cells; host or cells: PK 1 LLC MDR cells (LLC-PK1 porcine kidney cells expressing human MDR1, by own knowledge)
# [1] = Study S.241.1.103: 14C mass balance, 8 mg oral and IV; format: in vivo, human
# Experimental: The extent of absorption, distribution, metabolism, and elimination of cilansetron has been examined in an open-label, randomized, two period, crossover, mass balance study in 6 healthy male subjects who were treated with a single oral and single […] (30-minute infusion) of 8 mg ^14C-labeled (50 K μCi) cilansetron, with a washout of at least 2 weeks between periods. The ^14C-cilansetron was appropriately labeled in the aromatic ring and the label was therefore not metabolically labile. Serial blood samples, urine collection, and fecal collection were performed up to 144 hours following each dose. ^14C-radioactivity was measured in plasma, whole blood, urine, and feces, and unchanged cilansetron was measured in plasma and urine. Identification of metabolites of cilansetron was performed in plasma, urine, and feces. The results of this study are presented in Table 2.7.2.3.15 and the mean concentration-time plots for ^14C-radioactivity and unchanged cilansetron are shown in FIG. 24 and FIG. 25.
# Cilansetron and metabolite profiles in plasma, urine, and feces were evaluated using HPLC separation followed by determination of radioactivity using scintillation counting. Cilansetron, (4R)-hydroxy cilansetron, and (4S)-hydroxy cilansetron accounted for 29.3%, 25.7%, and 13.8% of the total radioactivity, respectively, in plasma at 6 hours after oral administration, and for 46.2%, 20.0% and 14.1%3 of the total radioactivity in plasma at 3 hours after IV administration. The cumulative percent of cilansetron and 4-hydroxy metabolites excreted in urine over a 48-hour interval following dosing was 0.5% and 32.8% of the dose, respectively, following oral dosing, and 1.1% and 31.9% of the dose following IV dosing. In the case of fecal excretion over a 96-hour postdose, cilansetron, (4R)-hydroxy cilansetron, and (4S)-hydroxy cilansetron accounted for 1.2%, 6.9%, and 4.6% of the dose following oral administration, and 1.3%, 5.1%, and 11.3% of the dose following IV administration.
# [2] = Study S.241.2.112: population pharmacokinetics (NONMEM) in IBS patients; format: in vivo, human; conditions: for predicted steady-state AUC(0-τ) / predicted steady-state Cmax: covariate population PK model, mean (SD); for half-life: both sexes
# Experimental: The pharmacokinetics and pharmacodynamics of cilansetron following multiple oral administration in non-constipated IBS patients have been examined in a population pharmacokinetic (NONMEM) analysis of a Phase II trial. The study was a double-blind, placebo-controlled, randomized, multi-center, parallel-group, dose ranging study to investigate the Efficacy and safety of four different doses of cilansetron (1 mg, 2 mg, 8 mg, and 16 mg TID) in patients with established IBS (non-constipated patients who suffered from IBS according to the Rome Criteria and were not bothered by constipation for >25% of their IBS episodes). The study was to be performed in approximately 50 centers. A sufficient number of patients were to be recruited to insure that at least 88 patients per treatment group were evaluable for efficacy and to get a total of 440 completers. […] There were interim assessments at the end of the 4th week (Visit 3; Day 29) and 8th week (Visit 4; Day 57) and a final assessment at the end of the 12th week (Visit 5; poststudy). Single blood samples for population pharmacokinetic analyses were drawn at Visits 3, 4, 5 or early termination, at 31 of the participating sites. With the exception of Visit 3, the timing of the blood draw in relation to the previous dose was not specified for any of the samples collected, but the time of sampling and the time of last dosing was recorded for each sample collected. For Visit 3, the blood sample had to be taken between 15 minutes and 2 hours of the morning or midday dose.
# Various covariates were screened during development of the population pharmacokinetic model, including age, height, weight, body surface area, body mass index, race, gender, smoking status, serum creatinine levels, serum creatinine clearance, total bilirubin levels, cilansetron dose, and concomitant medication usage. Some efficacy and safety parameters were also evaluated in this population analysis using correlation analyses. Efficacy parameters evaluated included overall relief of IBS symptoms (Responder or Non-Responder), intensity of abdominal pain, number of stools and stool consistency, symptoms of abdominal and rectal discomfort (straining, urgency, feeling of incomplete defecation, passage of mucus, bloating, and feeling of abdominal distension), and upper GI symptoms at Visit 5 (vomiting, heartburn, early satiety, postprandial fullness, sensation of prolonged digestion, and nausea). Safety parameters evaluated included the top ten most frequently observed adverse events (constipation, flatulence, nausea, abdominal pain, headache, dyspepsia, infection, gastrointestinal disorders, anorexia, and diarrhea).
# The population analysis included data from 160 patients (63 males and 97 females) with a median age of 45.5 years (range: 20-81 years), median weight of 78 kg (range: 47-121 kg), and median height of 170 cm (range: 147-196 cm). More than 90% of the patients were White and 18.8% of the patients were considered smokers. […] A total of 392 quantifiable concentrations for cilansetron, 393 quantifiable concentrations for (4S)-hydroxy cilansetron, and 397 quantifiable concentrations for (4R)-hydroxy cilansetron from 160 patients were included in the NONMEM datasets for population analyses.
# FIG. 54, FIG. 55, and FIG. 56 present mean steady-state plasma concentration-time profiles for cilansetron and its 4-hydroxy metabolites, and Table 2.7.2.3.29 and Table 2.7.2.3.30 present descriptive statistics for the estimated pharmacokinetic parameters of cilansetron and its 4-hydroxy metabolites from the final covariate population pharmacokinetic model. The cilansetron concentration data were best described by a one-compartment model with first-order input, an absorption lag time, and first-order elimination. A log-normal distribution was used to describe the variability of clearance, volume of distribution and absorption rate constant between patients. The residual error was best described by an exponential model. […]
# [3] = cilansetron 1 mg TID, IBS patients, Bayesian estimates, population PK model, arith. mean
# [4] = cilansetron 1 mg TID, IBS patients
# [5] = cilansetron 2 mg TID, IBS patients, Bayesian estimates, population PK model, arith. mean
# [6] = cilansetron 2 mg TID, IBS patients
# [7] = cilansetron 8 mg TID, IBS patients, Bayesian estimates, population PK model, arith. mean
# [8] = cilansetron 8 mg TID, IBS patients
# [9] = cilansetron 16 mg TID, IBS patients, Bayesian estimates, population PK model, arith. mean
# [10] = cilansetron 16 mg TID, IBS patients
# T1 sequence (P08183 whole entry): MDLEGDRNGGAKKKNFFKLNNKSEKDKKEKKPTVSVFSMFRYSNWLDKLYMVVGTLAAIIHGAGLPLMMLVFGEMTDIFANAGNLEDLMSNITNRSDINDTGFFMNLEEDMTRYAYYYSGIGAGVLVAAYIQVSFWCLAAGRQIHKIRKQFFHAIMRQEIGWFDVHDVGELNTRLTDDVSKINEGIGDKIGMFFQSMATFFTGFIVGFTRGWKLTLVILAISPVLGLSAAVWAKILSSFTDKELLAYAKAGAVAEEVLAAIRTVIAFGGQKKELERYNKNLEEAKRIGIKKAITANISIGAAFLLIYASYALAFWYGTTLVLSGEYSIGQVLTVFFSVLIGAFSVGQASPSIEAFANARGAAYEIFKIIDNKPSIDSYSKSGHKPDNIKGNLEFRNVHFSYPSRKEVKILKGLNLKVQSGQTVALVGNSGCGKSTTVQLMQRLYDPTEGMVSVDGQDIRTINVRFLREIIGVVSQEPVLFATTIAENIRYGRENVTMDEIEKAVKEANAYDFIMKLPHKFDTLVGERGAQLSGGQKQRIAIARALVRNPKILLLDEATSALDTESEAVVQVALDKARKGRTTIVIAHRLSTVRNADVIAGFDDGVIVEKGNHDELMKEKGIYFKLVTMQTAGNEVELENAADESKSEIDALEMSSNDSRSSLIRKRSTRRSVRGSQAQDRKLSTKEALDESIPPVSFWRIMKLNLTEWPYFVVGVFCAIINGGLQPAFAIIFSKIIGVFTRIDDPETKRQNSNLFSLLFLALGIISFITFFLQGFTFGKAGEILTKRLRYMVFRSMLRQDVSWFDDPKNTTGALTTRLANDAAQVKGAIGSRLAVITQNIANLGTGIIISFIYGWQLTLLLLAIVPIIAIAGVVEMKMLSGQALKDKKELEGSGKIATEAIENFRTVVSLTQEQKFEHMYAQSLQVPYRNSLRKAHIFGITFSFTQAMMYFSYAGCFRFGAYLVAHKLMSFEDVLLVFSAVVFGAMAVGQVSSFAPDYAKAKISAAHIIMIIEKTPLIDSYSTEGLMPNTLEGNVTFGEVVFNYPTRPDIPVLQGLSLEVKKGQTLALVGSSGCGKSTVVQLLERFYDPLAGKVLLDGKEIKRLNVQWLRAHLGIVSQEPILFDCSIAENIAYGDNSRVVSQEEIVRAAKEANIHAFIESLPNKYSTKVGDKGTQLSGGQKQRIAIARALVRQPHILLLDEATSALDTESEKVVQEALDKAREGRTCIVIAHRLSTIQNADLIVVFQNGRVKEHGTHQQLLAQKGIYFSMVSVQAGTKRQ
structure (smiles),measurement,setting,value
Cc1nccn1CC1CCc2c(c3cccc4c3n2CC[C@@H]4O)C1=O (stereo partly drawn) [(4S)-hydroxy cilansetron],Membrane Passage,"human P-glycoprotein; arithmetic mean percentages transported, 3 hours of incubation",13%
same,Share of total radioactivity in plasma,[1]; 3 hours after IV administration,14.1%
same,Share of total radioactivity in plasma,[1]; 6 hours after oral administration,13.8%
same,Fecal excretion over 96 hours,[1]; IV,11.3 % of the dose
same,Fecal excretion over 96 hours,[1]; oral,4.6 % of the dose
same,CL/F,[2]; [3],140 L/h
same,T½,[2]; [3],5.42 h
same,predicted steady-state AUC(0-τ),[2]; [4],3.85 (0.92) ng · h/mL
same,predicted steady-state Cmax,[2]; [4],0.546 (0.105) ng/mL
same,CL/F,[2]; [5],136 L/h
same,T½,[2]; [5],5.55 h
same,predicted steady-state AUC(0-τ),[2]; [6],7.68 (1.59) ng · h/mL
same,predicted steady-state Cmax,[2]; [6],1.10 (0.20) ng/mL
same,CL/F,[2]; [7],134 L/h
same,T½,[2]; [7],5.64 h
same,predicted steady-state AUC(0-τ),[2]; [8],31.6 (7.68) ng · h/mL
same,predicted steady-state Cmax,[2]; [8],4.46 (1.04) ng/mL
same,CL/F,[2]; [9],142 L/h
same,T½,[2]; [9],5.31 h
same,predicted steady-state AUC(0-τ),[2]; [10],63.2 (16.5) ng · h/mL
same,predicted steady-state Cmax,[2]; [10],9.03 (2.03) ng/mL
same,Increase of apparent oral clearance per 1 mL/min creatinine clearance,[2]; population model,0.883 L/h
"Cc1nccn1C[C@H]1CCc2c(c3cccc4c3n2CCC4)C1=O [Cilansetron, (R)-(−)-4,5,6,8,9,10-hexahydro-10-[(2-methyl-1H-imidazol-1-yl)methyl]-11H-pyrido-[3,2,1-jk]-carbazol-11-one]",Concentration required to saturate P-glycoprotein in vitro,human P-glycoprotein; human,above 1000 ng/mL
same,Membrane Passage,"human P-glycoprotein; human, 3 h",33%
same,P-gp Factor,"human P-glycoprotein; human, 3 h",3
same,AUC(0-last),"[1]; human, in vivo, iv",999 (223) ng[-equiv] · h/mL
same,AUC(0-inf),"[1]; human, in vivo, iv, 8 mg",1217 (299) ng[-equiv] · h/mL
same,AUC(0-last),"[1]; human, in vivo, po",908 (244) ng[-equiv] · h/mL
same,CL/F (blood),"[1]; human, in vivo, po",2857 (1912) mL/min
same,Cmax,"[1]; human, in vivo, po",171 (63) ng[-equiv]/mL
same,AUC(0-inf),"[1]; human, in vivo, po, 8 mg",1047 (248) ng[-equiv] · h/mL
same,Absorption calculated from percentage renal recovery,"[1]; male, human, in vivo",99.8%
same,Share of urinary excretion within 24 hours of dosing,"[1]; male, human, in vivo",≥ 87%
same,Dose recovered in urine as unchanged drug,"[1]; male, human, in vivo, 144 h",< 1%
same,AUC(0-inf),"[1]; male, human, in vivo, iv",209 ng·h/mL
same,AUC(0-t),"[1]; male, human, in vivo, iv",200 ng·h/mL
same,CL (plasma),"[1]; male, human, in vivo, iv",118 (42) mL/min
same,Cumulative percent excreted in urine over 48 hours,"[1]; male, human, in vivo, iv",1.1 % of the dose
same,Fecal excretion over 96 hours,"[1]; male, human, in vivo, iv",1.3 % of the dose
same,Radioactivity in blood cells,"[1]; male, human, in vivo, iv",9.5 (4.1) %
same,"Recovery, Fecal","[1]; male, human, in vivo, iv",28.9 (1.8) %
same,"Recovery, Total","[1]; male, human, in vivo, iv",92.3 (1.5) %
same,T½,"[1]; male, human, in vivo, iv",107 h
same,Vd,"[1]; male, human, in vivo, iv",85.3 L
same,Vz,"[1]; male, human, in vivo, iv",1001 (162) L
same,half-life,"[1]; male, human, in vivo, iv",1.51 h
same,Share of total radioactivity in plasma,"[1]; male, human, in vivo, iv, 3 h",46.2%
same,clearance,"[1]; male, human, in vivo, iv, CL (blood)",1040 mL/min
same,clearance,"[1]; male, human, in vivo, iv, CL (plasma)",655 mL/min
same,AUC(0-inf),"[1]; male, human, in vivo, po",98.2 ng·h/mL
same,AUC(0-t),"[1]; male, human, in vivo, po",91.4 ng·h/mL
same,Absorption of orally administered cilansetron,"[1]; male, human, in vivo, po",higher than 90%
same,Cmax,"[1]; male, human, in vivo, po",52.9 ng/mL
same,Cumulative percent excreted in urine over 48 hours,"[1]; male, human, in vivo, po",0.5 % of the dose
same,Fecal excretion over 96 hours,"[1]; male, human, in vivo, po",1.2 % of the dose
same,Radioactivity in blood cells,"[1]; male, human, in vivo, po",10.5 (5.7) %
same,"Recovery, Fecal","[1]; male, human, in vivo, po",27.5 (3.2) %
same,"Recovery, Total","[1]; male, human, in vivo, po",90.8 (2.2) %
same,Tmax,"[1]; male, human, in vivo, po",0.51 h
same,Vd/F,"[1]; male, human, in vivo, po",155 L
same,Vz/F,"[1]; male, human, in vivo, po",836 (275) L
same,half-life,"[1]; male, human, in vivo, po",1.23 h
same,Share of total radioactivity in plasma,"[1]; male, human, in vivo, po, 6 h",29.3%
same,bioavailability,"[1]; male, human, in vivo, po, Absolute Bioavailability",49%
same,half-life,"[2]; human, in vivo, 1 mg",4.76 h
same,half-life,"[2]; human, in vivo, 2 mg",4.3 h
same,half-life,"[2]; human, in vivo, 8 mg",4.5 h
same,half-life,"[2]; human, in vivo, 16 mg",4.5 h
same,Apparent oral clearance decrease with concomitant medications,"[2]; both, human, in vivo, po",38.6%
same,Apparent oral clearance increase in smokers,"[2]; both, human, in vivo, po",32.2%
same,Increase of mean apparent oral clearance in smokers,"[2]; both, human, in vivo, po",approximately 32%
same,CL/F,"[2]; human, in vivo, 1 mg",28.3 L/h
same,CL/F,"[2]; human, in vivo, 2 mg",34.1 L/h
same,CL/F,"[2]; human, in vivo, 8 mg",34.2 L/h
same,CL/F,"[2]; human, in vivo, 16 mg",37.3 L/h
